According to patent publication US7118895B2, “Process for producing aglycon by using diglycosidase and flavor-improved food containing the aglycon and converting agent to be used in the process” (Amano Enzyme Inc., priority 2000, dated 2006):

Test system: Crude diglycosidase
Experiment: Examination of substrate concentration in the conversion into isoflavone aglycons by diglycosidase using soybean materials;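 also: percent of the isoflavone family total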
Type: biochemical, Penicillium multicolor IAM7153
In short: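 Reaction at 55° C, shaken, pH 4.0 (20 mM acetate), using crude diglycosidase from a 1.88 AU/mL enzyme solution on soy flour, soymilk, defatted soybean or soy protein concentrate at 2, 5, 10, 20 or 30% (w/v). Isoflavone aglycons quantified by HPLC of ethanol extracts at 0, 1, 3, 6 h.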

Decomposition efficiency: ratio of each glycoside/aglycon within its isoflavone family (concentrated soybean protein, substrate concentration 2%, heat treatment of enzyme no, reaction time 0 h): 11.6%
Decomposition efficiency: ratio of each glycoside/aglycon within its isoflavone family (concentrated soybean protein, substrate concentration 2%, heat treatment of enzyme no, reaction time 1 h): 85.3%
Decomposition efficiency: ratio of each glycoside/aglycon within its isoflavone family (concentrated soybean protein, substrate concentration 2%, heat treatment of enzyme no, reaction time 3 h): 94.4%
Decomposition efficiency: ratio of each glycoside/aglycon within its isoflavone family (concentrated soybean protein, substrate concentration 2%, heat treatment of enzyme no, reaction time 6 h): 100.0%
Decomposition efficiency: ratio of each glycoside/aglycon within its isoflavone family (concentrated soybean protein, substrate concentration 2%, heat treatment of enzyme yes, reaction time 6 h): 11.2%
Decomposition efficiency: ratio of each glycoside/aglycon within its isoflavone family (concentrated soybean protein, substrate concentration 5%, heat treatment of enzyme no, reaction time 0 h): 11.2%
Decomposition efficiency: ratio of each glycoside/aglycon within its isoflavone family (concentrated soybean protein, substrate concentration 5%, heat treatment of enzyme no, reaction time 1 h): 72.4%
Decomposition efficiency: ratio of each glycoside/aglycon within its isoflavone family (concentrated soybean protein, substrate concentration 5%, heat treatment of enzyme no, reaction time 3 h): 81.9%
Decomposition efficiency: ratio of each glycoside/aglycon within its isoflavone family (concentrated soybean protein, substrate concentration 5%, heat treatment of enzyme no, reaction time 6 h): 87.4%
Decomposition efficiency: ratio of each glycoside/aglycon within its isoflavone family (concentrated soybean protein, substrate concentration 5%, heat treatment of enzyme yes, reaction time 6 h): 11.3%
Decomposition efficiency: ratio of each glycoside/aglycon within its isoflavone family (concentrated soybean protein, substrate concentration 10%, heat treatment of enzyme no, reaction time 0 h): 11.0%
Decomposition efficiency: ratio of each glycoside/aglycon within its isoflavone family (concentrated soybean protein, substrate concentration 10%, heat treatment of enzyme no, reaction time 1 h): 66.8%
Decomposition efficiency: ratio of each glycoside/aglycon within its isoflavone family (concentrated soybean protein, substrate concentration 10%, heat treatment of enzyme no, reaction time 3 h): 73.5%
Decomposition efficiency: ratio of each glycoside/aglycon within its isoflavone family (concentrated soybean protein, substrate concentration 10%, heat treatment of enzyme no, reaction time 6 h): 75.8%
Decomposition efficiency: ratio of each glycoside/aglycon within its isoflavone family (concentrated soybean protein, substrate concentration 10%, heat treatment of enzyme yes, reaction time 6 h): 11.1%
Decomposition efficiency: ratio of each glycoside/aglycon within its isoflavone family (concentrated soybean protein, substrate concentration 20%, heat treatment of enzyme no, reaction time 0 h): 10.8%
Decomposition efficiency: ratio of each glycoside/aglycon within its isoflavone family (concentrated soybean protein, substrate concentration 20%, heat treatment of enzyme no, reaction time 1 h): 51.2%
Decomposition efficiency: ratio of each glycoside/aglycon within its isoflavone family (concentrated soybean protein, substrate concentration 20%, heat treatment of enzyme no, reaction time 3 h): 66.2%
Decomposition efficiency: ratio of each glycoside/aglycon within its isoflavone family (concentrated soybean protein, substrate concentration 20%, heat treatment of enzyme no, reaction time 6 h): 69.2%
Decomposition efficiency: ratio of each glycoside/aglycon within its isoflavone family (concentrated soybean protein, substrate concentration 20%, heat treatment of enzyme yes, reaction time 6 h): 11.1%
Decomposition efficiency: ratio of each glycoside/aglycon within its isoflavone family (concentrated soybean protein, substrate concentration 30%, heat treatment of enzyme no, reaction time 0 h): 8.2%
Decomposition efficiency: ratio of each glycoside/aglycon within its isoflavone family (concentrated soybean protein, substrate concentration 30%, heat treatment of enzyme no, reaction time 1 h): 61.5%
Decomposition efficiency: ratio of each glycoside/aglycon within its isoflavone family (concentrated soybean protein, substrate concentration 30%, heat treatment of enzyme no, reaction time 3 h): 68.9%
Decomposition efficiency: ratio of each glycoside/aglycon within its isoflavone family (concentrated soybean protein, substrate concentration 30%, heat treatment of enzyme no, reaction time 6 h): 71.4%
Decomposition efficiency: ratio of each glycoside/aglycon within its isoflavone family (concentrated soybean protein, substrate concentration 30%, heat treatment of enzyme yes, reaction time 6 h): 8.2%
Decomposition efficiency: ratio of each glycoside/aglycon within its isoflavone family (defatted soybean, substrate concentration 2%, heat treatment of enzyme no, reaction time 0 h): not detected
Decomposition efficiency: ratio of each glycoside/aglycon within its isoflavone family (defatted soybean, substrate concentration 2%, heat treatment of enzyme no, reaction time 1 h): not detected
Decomposition efficiency: ratio of each glycoside/aglycon within its isoflavone family (defatted soybean, substrate concentration 2%, heat treatment of enzyme no, reaction time 3 h): not detected
Decomposition efficiency: ratio of each glycoside/aglycon within its isoflavone family (defatted soybean, substrate concentration 2%, heat treatment of enzyme no, reaction time 6 h): not detected
Decomposition efficiency: ratio of each glycoside/aglycon within its isoflavone family (defatted soybean, substrate concentration 2%, heat treatment of enzyme yes, reaction time 6 h): not detected
Decomposition efficiency: ratio of each glycoside/aglycon within its isoflavone family (defatted soybean, substrate concentration 5%, heat treatment of enzyme no, reaction time 0 h): 41.6%
Decomposition efficiency: ratio of each glycoside/aglycon within its isoflavone family (defatted soybean, substrate concentration 5%, heat treatment of enzyme no, reaction time 1 h): 58.4%
Decomposition efficiency: ratio of each glycoside/aglycon within its isoflavone family (defatted soybean, substrate concentration 5%, heat treatment of enzyme no, reaction time 3 h): 68.2%
Decomposition efficiency: ratio of each glycoside/aglycon within its isoflavone family (defatted soybean, substrate concentration 5%, heat treatment of enzyme no, reaction time 6 h): 80.5%
Decomposition efficiency: ratio of each glycoside/aglycon within its isoflavone family (defatted soybean, substrate concentration 5%, heat treatment of enzyme yes, reaction time 6 h): 41.5%
Decomposition efficiency: ratio of each glycoside/aglycon within its isoflavone family (defatted soybean, substrate concentration 10%, heat treatment of enzyme no, reaction time 0 h): 47.0%
Decomposition efficiency: ratio of each glycoside/aglycon within its isoflavone family (defatted soybean, substrate concentration 10%, heat treatment of enzyme no, reaction time 1 h): 45.3%
Decomposition efficiency: ratio of each glycoside/aglycon within its isoflavone family (defatted soybean, substrate concentration 10%, heat treatment of enzyme no, reaction time 3 h): 63.4%
Decomposition efficiency: ratio of each glycoside/aglycon within its isoflavone family (defatted soybean, substrate concentration 10%, heat treatment of enzyme no, reaction time 6 h): 72.1%
Decomposition efficiency: ratio of each glycoside/aglycon within its isoflavone family (defatted soybean, substrate concentration 10%, heat treatment of enzyme yes, reaction time 6 h): 42.4%
Decomposition efficiency: ratio of each glycoside/aglycon within its isoflavone family (roasted soy flour, substrate concentration 2%, heat treatment of enzyme no, reaction time 0 h): 16.2%
Decomposition efficiency: ratio of each glycoside/aglycon within its isoflavone family (roasted soy flour, substrate concentration 2%, heat treatment of enzyme no, reaction time 1 h): 100.0%
Decomposition efficiency: ratio of each glycoside/aglycon within its isoflavone family (roasted soy flour, substrate concentration 2%, heat treatment of enzyme no, reaction time 3 h): 100.0%
Decomposition efficiency: ratio of each glycoside/aglycon within its isoflavone family (roasted soy flour, substrate concentration 2%, heat treatment of enzyme no, reaction time 6 h): 100.0%
Decomposition efficiency: ratio of each glycoside/aglycon within its isoflavone family (roasted soy flour, substrate concentration 2%, heat treatment of enzyme yes, reaction time 6 h): 12.2%
Decomposition efficiency: ratio of each glycoside/aglycon within its isoflavone family (roasted soy flour, substrate concentration 5%, heat treatment of enzyme no, reaction time 0 h): 11.4%
Decomposition efficiency: ratio of each glycoside/aglycon within its isoflavone family (roasted soy flour, substrate concentration 5%, heat treatment of enzyme no, reaction time 1 h): 88.2%
Decomposition efficiency: ratio of each glycoside/aglycon within its isoflavone family (roasted soy flour, substrate concentration 5%, heat treatment of enzyme no, reaction time 3 h): 92.8%
Decomposition efficiency: ratio of each glycoside/aglycon within its isoflavone family (roasted soy flour, substrate concentration 5%, heat treatment of enzyme no, reaction time 6 h): 100.0%
Decomposition efficiency: ratio of each glycoside/aglycon within its isoflavone family (roasted soy flour, substrate concentration 5%, heat treatment of enzyme yes, reaction time 6 h): 11.4%
Decomposition efficiency: ratio of each glycoside/aglycon within its isoflavone family (roasted soy flour, substrate concentration 10%, heat treatment of enzyme no, reaction time 0 h): 5.5%
Decomposition efficiency: ratio of each glycoside/aglycon within its isoflavone family (roasted soy flour, substrate concentration 10%, heat treatment of enzyme no, reaction time 1 h): 83.3%
Decomposition efficiency: ratio of each glycoside/aglycon within its isoflavone family (roasted soy flour, substrate concentration 10%, heat treatment of enzyme no, reaction time 3 h): 90.3%
Decomposition efficiency: ratio of each glycoside/aglycon within its isoflavone family (roasted soy flour, substrate concentration 10%, heat treatment of enzyme no, reaction time 6 h): 100.0%
Decomposition efficiency: ratio of each glycoside/aglycon within its isoflavone family (roasted soy flour, substrate concentration 10%, heat treatment of enzyme yes, reaction time 6 h): 9.9%
Decomposition efficiency: ratio of each glycoside/aglycon within its isoflavone family (roasted soy flour, substrate concentration 20%, heat treatment of enzyme no, reaction time 0 h): 8.6%
Decomposition efficiency: ratio of each glycoside/aglycon within its isoflavone family (roasted soy flour, substrate concentration 20%, heat treatment of enzyme no, reaction time 1 h): 77.1%
Decomposition efficiency: ratio of each glycoside/aglycon within its isoflavone family (roasted soy flour, substrate concentration 20%, heat treatment of enzyme no, reaction time 3 h): 86.2%
Decomposition efficiency: ratio of each glycoside/aglycon within its isoflavone family (roasted soy flour, substrate concentration 20%, heat treatment of enzyme no, reaction time 6 h): 90.0%
Decomposition efficiency: ratio of each glycoside/aglycon within its isoflavone family (roasted soy flour, substrate concentration 20%, heat treatment of enzyme yes, reaction time 6 h): 9.1%
Decomposition efficiency: ratio of each glycoside/aglycon within its isoflavone family (roasted soy flour, substrate concentration 30%, heat treatment of enzyme no, reaction time 0 h): 8.8%
Decomposition efficiency: ratio of each glycoside/aglycon within its isoflavone family (roasted soy flour, substrate concentration 30%, heat treatment of enzyme no, reaction time 1 h): 71.6%
Decomposition efficiency: ratio of each glycoside/aglycon within its isoflavone family (roasted soy flour, substrate concentration 30%, heat treatment of enzyme no, reaction time 3 h): 75.6%
Decomposition efficiency: ratio of each glycoside/aglycon within its isoflavone family (roasted soy flour, substrate concentration 30%, heat treatment of enzyme no, reaction time 6 h): 86.3%
Decomposition efficiency: ratio of each glycoside/aglycon within its isoflavone family (roasted soy flour, substrate concentration 30%, heat treatment of enzyme yes, reaction time 6 h): 8.7%
Decomposition efficiency: ratio of each glycoside/aglycon within its isoflavone family (soymilk, substrate concentration 2%, heat treatment of enzyme no, reaction time 0 h): not detected
Decomposition efficiency: ratio of each glycoside/aglycon within its isoflavone family (soymilk, substrate concentration 2%, heat treatment of enzyme no, reaction time 1 h): 100.0%
Decomposition efficiency: ratio of each glycoside/aglycon within its isoflavone family (soymilk, substrate concentration 2%, heat treatment of enzyme no, reaction time 3 h): 100.0%
Decomposition efficiency: ratio of each glycoside/aglycon within its isoflavone family (soymilk, substrate concentration 2%, heat treatment of enzyme no, reaction time 6 h): 100.0%
Decomposition efficiency: ratio of each glycoside/aglycon within its isoflavone family (soymilk, substrate concentration 2%, heat treatment of enzyme yes, reaction time 6 h): not detected
Decomposition efficiency: ratio of each glycoside/aglycon within its isoflavone family (soymilk, substrate concentration 5%, heat treatment of enzyme no, reaction time 0 h): not detected
Decomposition efficiency: ratio of each glycoside/aglycon within its isoflavone family (soymilk, substrate concentration 5%, heat treatment of enzyme no, reaction time 1 h): 75.4%
Decomposition efficiency: ratio of each glycoside/aglycon within its isoflavone family (soymilk, substrate concentration 5%, heat treatment of enzyme no, reaction time 3 h): 92.5%
Decomposition efficiency: ratio of each glycoside/aglycon within its isoflavone family (soymilk, substrate concentration 5%, heat treatment of enzyme no, reaction time 6 h): 100.0%
Decomposition efficiency: ratio of each glycoside/aglycon within its isoflavone family (soymilk, substrate concentration 5%, heat treatment of enzyme yes, reaction time 6 h): not detected
Decomposition efficiency: ratio of each glycoside/aglycon within its isoflavone family (soymilk, substrate concentration 10%, heat treatment of enzyme no, reaction time 0 h): 6.4%
Decomposition efficiency: ratio of each glycoside/aglycon within its isoflavone family (soymilk, substrate concentration 10%, heat treatment of enzyme no, reaction time 1 h): 73.6%
Decomposition efficiency: ratio of each glycoside/aglycon within its isoflavone family (soymilk, substrate concentration 10%, heat treatment of enzyme no, reaction time 3 h): 89.5%
Decomposition efficiency: ratio of each glycoside/aglycon within its isoflavone family (soymilk, substrate concentration 10%, heat treatment of enzyme no, reaction time 6 h): 95.8%
Decomposition efficiency: ratio of each glycoside/aglycon within its isoflavone family (soymilk, substrate concentration 10%, heat treatment of enzyme yes, reaction time 6 h): 6.2%
Decomposition efficiency: ratio of each glycoside/aglycon within its isoflavone family (soymilk, substrate concentration 20%, heat treatment of enzyme no, reaction time 0 h): 6.3%
Decomposition efficiency: ratio of each glycoside/aglycon within its isoflavone family (soymilk, substrate concentration 20%, heat treatment of enzyme no, reaction time 1 h): 72.2%
Decomposition efficiency: ratio of each glycoside/aglycon within its isoflavone family (soymilk, substrate concentration 20%, heat treatment of enzyme no, reaction time 3 h): 90.6%
Decomposition efficiency: ratio of each glycoside/aglycon within its isoflavone family (soymilk, substrate concentration 20%, heat treatment of enzyme no, reaction time 6 h): 94.1%
Decomposition efficiency: ratio of each glycoside/aglycon within its isoflavone family (soymilk, substrate concentration 20%, heat treatment of enzyme yes, reaction time 6 h): 5.7%
Decomposition efficiency: ratio of each glycoside/aglycon within its isoflavone family (soymilk, substrate concentration 30%, heat treatment of enzyme no, reaction time 0 h): 6.1%
Decomposition efficiency: ratio of each glycoside/aglycon within its isoflavone family (soymilk, substrate concentration 30%, heat treatment of enzyme no, reaction time 1 h): 66.9%
Decomposition efficiency: ratio of each glycoside/aglycon within its isoflavone family (soymilk, substrate concentration 30%, heat treatment of enzyme no, reaction time 3 h): 84.1%
Decomposition efficiency: ratio of each glycoside/aglycon within its isoflavone family (soymilk, substrate concentration 30%, heat treatment of enzyme no, reaction time 6 h): 92.3%
Decomposition efficiency: ratio of each glycoside/aglycon within its isoflavone family (soymilk, substrate concentration 30%, heat treatment of enzyme yes, reaction time 6 h): 6.7%
Compound: COc1cc2c(=O)c(-c3ccc(O)cc3)coc2cc1O [glycitein]
